Reference: patent US8202863B2 (Aventis Pharmaceuticals Inc., priority 2005, dated 2012)

What follows are compounds tested against human h-PGDS (Homo sapiens, UniProt O60760) (assay: Enzyme Immunoassay (EIA) method (Assay 2)). Conditions: assigned.
Format: biochemical
Description: (§1) The compounds of the present invention can be tested for enzymatic inhibiting activity against PGD2 Synthase according to either one of the following assays.
(§2) Assay 2: Enzyme Immunoassay (EIA) Method
• a. Preparation of 0.1M K2HPO4/KH2PO4 buffer (pH ˜7.4) • Prepare 0.1 M KH2PO4 from 1M KH2PO4 (Sigma, Cat# P-8709) • Prepare 0.1 M K2HPO4 from powder of K2HPO4 (Fisher, BP363-500) • Mix 0.1 M K2HPO4 with 0.1 M KH2PO4 to adjust pH to 7.4. • b. Preparation of 0.5% γ-globulin • Add 0.1 g of γ-globulin (Sigma, Cat# G-5009) to 20 mL 0.1 M K2HPO4/KH2PO4 buffer (pH ˜7.4) and make 1-ml/vial aliquots and store in −80° C. • c. Preparation of 100 mM GSH • Add 307 mg of GSH (Sigma, Cat# G-6529) to 10 mL 0.1 M K2HPO4/KH2PO4 buffer (pH ˜7.4) and store at −80° C. • d. Preparation of Reaction buffer: • 198 mL of 0.1M K2HPO4/KH2PO4 buffer (pH ˜7.4) • 2 mM GSH—Prepared from 100 mM GSH • 0.4 g Glycerol • 2 mL of 0.5% γ-globulin • Add 0.4 g of glycerol and 2 mL of 0.5% γ-globulin to 198 mL of 0.1 M K2HPO4/KH2PO4 • buffer (pH7.4). • Add 0.4 mL of 100 mM GSH to 19.6 ml reaction buffer before the assay (enough for two 96-well plates). • e. Preparation of FeCl2/citric acid stopping solution: (8 mg/mL FeCl2, 0.1 M citric acid) • Add 40 mg fresh FeCl2 (IGN, Cat# 158046) to 5 ml 0.1 M citric acid (Sigma, Cat# C0759). • f. Preparation of MOX reagent: • 10% EtOH-Add 1 mL of EtOH to 9 mL of ultra pure H2O • Dissolve 0.1 g of methoxylamine (Cayman, Cat# 400036/) in 10% EtOH (10 mL). • Add 0.82 g of sodium acetate (Cayman, Cat#400037) to MOX solution and dissolve. II. Materials and Method • Dimethylsulfoxide (DMSO; Sigma; Cat# D2650) • Prostaglandin D2-MOX express EIA kit (Caymen Chemical, Catalog No. 500151)
Before the assay, cool down 10 mL of acetone in polypropylene tubes and empty 96 well plates in ice. All the procedures except compound dilution are performed on ice.
• 1. Dilute Compound in DMSO
• 2. Dilute 2 μL of each above concentration of compound to 38 μL of reaction buffer in 96-well plates and mix. IV. Enzyme and Substrate Solution Preparation • 1. Preparation of 0.39 ng/μL enzyme solution (0.35 ng/μL at final after compound addition). • Mix 4 μL of 4 mg/mL human h-PGDS with 396 μL of reaction buffer (to give enzyme concentration 40 μg/mL). Add 46.8 μL of 40 μg/mL h-PGDS to 4.753 mL of reaction buffer to give a total volume of 4.8 mL • 2. Preparation of Substrate Solution (PGH2): Add 0.375 mL of 0.1 mg/mL of PGH2 to 1.625 mL acetone. V. Enzyme Reaction: • 1. Add 60 μL of enzyme solution to compound well and positive control (without compound) in U-bottom polypropylene plate on ice. • 2. Add 60 μL of reaction buffer and 6.6 μL of 5% DMSO in reaction buffer into negative control wells in the plate. • 3. Add 6.6 μL of diluted compound in reaction buffer to the compound wells and mix. • 4. Add 6.6 μL of 5% DMSO in reaction buffer to the positive control well. • 5. Incubate the plate in ice for at least 30 min. • 6. Add 20 μL of substrate (PGH2) solution to compound, negative and positive control wells in the U-bottom 96 well plate on ice. • 7. Dry the plate in cold room for about 25-28 min. • 8. Pipette 45 μL of enzyme solution (above) into 96-wells with dried PGH2 and mix 3 times. Incubate on the ice for 1 min. • 9. Add 45 μL of FeCl2 solution into each wells and mix. • 10. Add 90 μL of MOX solution and mix. • 11. Incubate for 30 min at 60° C. • 12. Dilute the samples 2500× with EIA buffer. VI. EIA assay • Perform the assay according to the procedure in EIA kit provided by Cayman. […]

Sequence of human h-PGDS (O60760 whole entry): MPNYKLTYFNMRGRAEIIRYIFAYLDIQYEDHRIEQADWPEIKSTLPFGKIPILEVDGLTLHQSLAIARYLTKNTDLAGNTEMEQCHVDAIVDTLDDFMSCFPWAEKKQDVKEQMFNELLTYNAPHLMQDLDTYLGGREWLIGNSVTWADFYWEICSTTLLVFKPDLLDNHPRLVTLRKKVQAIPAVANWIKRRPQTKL

Structure (SMILES) | IC50 [nM]
O=C(Nc1nc(-c2ccccc2)ns1)c1cnc(-c2ccccc2)nc1 [Example 110, 2-Phenyl-pyrimidine-5-carboxylic acid (3-phenyl-[1,2,4]thiadiazol-5-yl)-amide] | 30
NS(=O)(=O)c1ccc(CNC(=O)c2cnc(-n3cccn3)nc2)cc1 [Example 117, 2-Pyrazol-1-yl-pyrimidine-5-carboxylic acid 4-sulfamoyl-benzylamide] | 266
Cc1nc(-c2ncc(C(=O)NC3CCOCC3)cn2)cs1 [Example 118, 2-(2-Methyl-thiazol-4-yl)-pyrimidine-5-carboxylic acid (tetrahydro-pyran-4-yl)-amide] | 82

Further lines, results first:

IC50 [nM] | Structure (SMILES)
9.5 | CNS(=O)(=O)c1cccc(CNC(=O)c2cnc(-c3cccc(F)c3)nc2)c1 [Example 97, 2-(3-Fluoro-phenyl)-pyrimidine-5-carboxylic acid 3-methylsulfamoyl-benzylamide]
55 | NS(=O)(=O)CCNC(=O)c1cnc(-c2ccccc2)nc1 [Example 108, 2-Pheny-pyrimidine-5-carboxylic acid (2-sulfamoyl-ethyl)-amide]
82 | CN(C)S(=O)(=O)CCNC(=O)c1cnc(-c2ccccc2)nc1 [Example 109, 2-Pheny-pyrimidine-5-carboxylic acid (2-dimethylsulfamoyl-ethyl)-amide]

Each compound was assayed against T1, Hematopoietic PGD2 Synthase (Homo sapiens, UniProt O60760) (assay: Fluorescence Polarization Assay or EIA assay (which one not stated)). Conditions: assay not assigned in b678 (Fluorescence Polarization or EIA).
Format: biochemical
Protocol: as §1
(§3) Assay 1: Fluorescence Polarization Assay
(§4) As described in PCT publication WO 2004/016223, Example II.
as §2
• 2. Dilute 2 μL of each above concentration of compound to 38 μL of reaction buffer in 96-well plates and mix. IV. Enzyme and Substrate Solution Preparation • 1. Preparation of 0.39 ng/μL enzyme solution (0.35 ng/μL at final after compound addition). • Mix 4 μL of 4 mg/mL human h-PGDS with 396 μL of reaction buffer (to give enzyme concentration 40 μg/mL). Add 46.8 μL of 40 μg/mL h-PGDS to 4.753 mL of reaction buffer to give a total volume of 4.8 mL • 2. Preparation of Substrate Solution (PGH2): Add 0.375 mL of 0.1 mg/mL of PGH2 to 1.625 mL acetone. V. Enzyme Reaction: • 1. Add 60 μL of enzyme solution to compound well and positive control (without compound) in U-bottom polypropylene plate on ice. • 2. Add 60 μL of reaction buffer and 6.6 μL of 5% DMSO in reaction buffer into negative control wells in the plate. • 3. Add 6.6 μL of diluted compound in reaction buffer to the compound wells and mix. • 4. Add 6.6 μL of 5% DMSO in reaction buffer to the positive control well. • 5. Incubate the plate in ice for at least 30 min. • 6. Add 20 μL of substrate (PGH2) solution to compound, negative and positive control wells in the U-bottom 96 well plate on ice. • 7. Dry the plate in cold room for about 25-28 min. • 8. Pipette 45 μL of enzyme solution (above) into 96-wells with dried PGH2 and mix 3 times. Incubate on the ice for 1 min. • 9. Add 45 μL of FeCl2 solution into each wells and mix. • 10. Add 90 μL of MOX solution and mix. • 11. Incubate for 30 min at 60° C. • 12. Dilute the samples 2500× with EIA buffer. VI. EIA assay • Perform the assay according to the procedure in EIA kit provided by Cayman. Total PGD2 levels (pg/mL) were determined in the samples by EIA kits (Caymen Chemical, Catalog No. 500151) Calculate amount of PGD2 as below • Calculated % Positive control according to the equation below; % Positive control=(Compound value−Negative control)/(Positive value-Negative control value)×100. % Positive control=(Compound value-Negative control)×100(Positive Value-Negative Control Value) • Compound value=PGD2 levels (pg/mL) obtained from the standard curve in EIA assay for the samples with compound • Negative control value=PGD2 levels (pg/mL) obtained from the standard curve in EIA assay for the samples without enzyme • Positive control value=PGD2 levels (pg/mL) obtained from the standard curve in EIA assay for the samples with enzyme but without compound • IC50s are determined by excel fit to get the x value when y=½Ymax using 4 parameter logistic model for the IC50 curves. Results

T1 sequence (O60760 whole entry): as above

Structure (SMILES) | IC50 [nM]
O=C(Nc1ccc2nc(CCN3CCCC3)oc2c1)c1cnc(-c2ccccc2)nc1 [Example 11, 2-Phenyl-pyrimidine-5-carboxylic acid [2-(2-pyrrolidin-1-yl-ethyl)-benzooxazol-6-yl]-amide] | 18
O=C(NCc1cccc(S(=O)(=O)NCCc2c[nH]cn2)c1)c1cnc(-c2cccc(F)c2)nc1 [Example 60, 2-(3-Fluoro-phenyl)-pyrimidine-5-carboxylic acid 3-[2-(1H-imidazol-4-yl)-ethylsulfamoyl]-benzylamide] | 61
Cc1nc(-c2ncc(C(=O)NC3CCOCC3)cn2)no1 [Example 77, 2-(5-Methyl-[1,2,4]oxadiazole-3-yl)-pyrimidine-5-carboxylic acid (tetrahydro-pyran-4-yl)-amide] | 514
O=C(NCc1ccc(N2CCOCC2)cc1)c1cnc(-c2ccccc2)nc1 [Example 87, 2-Pheny-pyrimidine-5-carboxylic acid 4-morpholin-4-ylbenzylamide] | 12
CCOP(=O)(Cc1ccc(NC(=O)c2cnc(-c3ccccc3)nc2)cc1)OCC [Example 98] | 38
CCOP(=O)(CCCCNC(=O)c1cnc(-c2ccccc2)nc1)OCC [Example 99, {4-[(2-Phenyl-pyrimidine-5-carbonyl)-amino]-butyl)-phosphonic acid diethyl ester] | 23.5
CCOP(=O)(OCC)C(NC(=O)c1cnc(-c2ccccc2)nc1)c1ccccc1 (centres unmarked) [Example 101, {Phenyl-[(2-phenyl-pyrimidine-5-carbonyl)-amino]-methyl)-phosphonic acid diethyl ester] | 48

Other lines, results leading:

IC50 [nM] | Structure (SMILES)
15 | O=C(Nc1cc[nH]c(=O)n1)c1cnc(-c2ccccc2)nc1 [Example 29, 2-Phenyl-pyrimidine-5-carboxylic acid (2-oxo-1,2-dihydro-pyrimidin-4-yl)-amide]
7 | O=C(NCc1ccc2occc2c1)c1cnc(-c2ccccc2)nc1 [Example 90, 2-Pheny-pyrimidine-5-carboxylic acid (benzofuran-5-ylmethyl)-amide]
16 | NC(=O)c1ccc(CNC(=O)c2cnc(-c3ccccc3)nc2)cc1 [Example 92, 2-Pheny-pyrimidine-5-carboxylic acid 4-carbamoyl-benzylamide]

Each compound was assayed against T1, Hematopoietic PGD2 Synthase (assay: Fluorescence Polarization Assay (Assay 1)). Conditions: assigned.
Format: binding
Description: as §1, §3, §4

IC50 [nM] | Structure (SMILES)
2.5 | O=C(Nc1ccc2c(c1)CS(=O)(=O)N2)c1cnc(-c2ccccc2)nc1 [Example 8, 2-Phenyl-pyrimidine-5-carboxylic acid (2,2-dioxo-2,3-dihydro-1H-2lamda*6*-benzo[c]isothiazol-5-yl)-amide]
2 | O=C(NC1CCN(Cc2ncc[nH]2)CC1)c1cnc(-c2ccccc2)nc1 [Example 9]
32 | O=C(NCCN1CCNC1=O)c1cnc(-c2ccccc2)nc1 [Example 33, 2-Phenyl-pyrimidine-5-carboxylic acid [2-(2-oxo-imidazolidin-1-yl)-ethyl]-amide]
35 | O=C(NCCc1c[nH]cn1)c1cnc(-c2ccccc2)nc1 [Example 34, 2-Phenyl-pyrimidine-5-carboxylic acid [2-(1H-imidazol-4-yl)-ethyl]-amide]
2 | O=C(NCCc1ccc2c(c1)OCO2)c1cnc(-c2ccccc2)nc1 [Example 82, 2-Phenyl-pyrimidine-5-carboxylic acid (2-benzo[133]dioxol-5-yl-ethyl)-amide]
23 | O=C(Nc1ccc2[nH]ncc2c1)c1cnc(-c2ccccc2)nc1 [Example 83, 2-Pheny-pyrimidine-5-carboxylic acid (1H-indazol-5-yl)-amide]
6.5 | O=C(NCc1ccc(-c2cnns2)cc1)c1cnc(-c2ccccc2)nc1 [Example 84]
